Measurements published in patent publication US9914760B2, “Methods of identifying, isolating and using odorant and aroma receptors” (Firmenich SA, priority 2013, dated 2018).

Experiments:
Experiment in all cases: cell-based calcium-flux assay, HEK293T with Gα15
OR52N2 = target: T1, OR52N2 (Homo sapiens, UniProt Q8NGI0); settings: increasing concentrations; FIG. 6A, B
T1 construct: expressed in transfected cells
T1 sequence (Q8NGI0 1-321): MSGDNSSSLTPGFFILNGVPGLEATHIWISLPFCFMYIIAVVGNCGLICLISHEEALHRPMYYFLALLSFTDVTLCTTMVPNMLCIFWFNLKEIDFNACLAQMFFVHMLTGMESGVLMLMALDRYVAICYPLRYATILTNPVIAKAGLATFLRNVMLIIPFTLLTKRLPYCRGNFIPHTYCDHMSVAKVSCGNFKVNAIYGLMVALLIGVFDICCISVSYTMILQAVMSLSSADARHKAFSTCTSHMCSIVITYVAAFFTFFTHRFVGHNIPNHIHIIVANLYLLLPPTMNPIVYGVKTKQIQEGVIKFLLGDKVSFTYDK
Text: (§1) The activity of candidate human indole and skatole malodors receptors OR52N2 (SEQ ID NO: 11 and SEQ ID NO: 12), OR11G2 (SEQ ID NO: 13 and SEQ ID NO: 14, OR5AC2 (SEQ ID NO: 75 and SEQ ID NO: 76), OR4C15 (SEQ ID NO: 79 and SEQ ID NO: 80), OR8S1 (SEQ ID NO: 83 and SEQ ID NO: 84), OR11H6 (SEQ ID NO: 15 and SEQ ID NO: 16) and OR11H4 (SEQ ID NO: 49 and SEQ ID NO: 50) and candidate mouse indole and skatole malodors receptors Olfr665 (SEQ ID NO: 9 and SEQ ID NO 10) and Olfr740 (SEQ ID NO: 1 and SEQ ID NO 2) were confirmed in cell-based calcium-flux assays (FIGS. 6A to 6J). Cells stably co-expressing Rho-tagged human OR52N2 (FIG. 6A, B) or OR11G2 (FIG. 6C) and Gα15 (SEQ ID NO: 25) were exposed to increasing concentrations of skatole or indole. FIG. 6B is a repeat experiment showing similar activity of OR52N2 with indole and skatole. Odorant-induced OR52N2 or OR11G2 activity was detected by measuring the maximum Calcium 5 dye (Molecular Devices) fluorescence change following odorant exposure. Activity is defined as the baseline corrected Relative Fluorescent Units (RFU) ratios normalized to the highest RFU in the experiment in FIG. 6A. […] A cell line lacking a receptor, for example hOR52N2, was used as a control for non-specific activity at high concentrations (‘Indole control’ and ‘Skatole control’). The human receptor OR52N2 (SEQ ID NO: 11 and SEQ ID NO: 12) was identified because of its sequence similarity to mouse Olfr665 (SEQ ID NO: 10), an indole/skatole receptor isolated from olfactory neurons responding to both indole and skatole. The human receptor OR11G2 (SEQ ID NO: 13 and SEQ ID NO: 14) was identified because of its sequence similarity to mouse Olfr740 (SEQ ID NO: 2), an indole/skatole receptor isolated from olfactory neurons responding to both indole and skatole. The receptors were modified with the Rho sequence and stably expressed in HEK 293T cells. Further examples show indole and skatole dose-response curves for human receptors OR5AC2, OR4C15, OR8S1, OR11H6, OR11H4 and mouse receptors Olfr665 and Olfr740 (FIG. 6D-J). The human receptor OR5AC2 (SEQ ID NO: 75 and SEQ ID NO: 76) was identified because of its sequence similarity to mouse Olfr207 (SEQ ID NO: 78), a receptor isolated from olfactory neurons responding to both indole and skatole. The human receptor OR4C15 (SEQ ID NO: 79 and SEQ ID NO: 80) was identified because of its sequence similarity to mouse Olfr211 (SEQ ID NO: 82), a receptor isolated from olfactory neurons responding to both indole and skatole. The human receptor OR8S1 (SEQ ID NO: 83 and SEQ ID NO: 84) was identified because of its sequence similarity to mouse Olfr257 (SEQ ID NO: 86), a receptor isolated from olfactory neurons responding to both indole and skatole. The human receptor OR11H6 (SEQ ID NO: 15 and SEQ ID NO: 16) was identified because of its sequence similarity to mouse Olfr745 (SEQ ID NO: 8), a receptor isolated from olfactory neurons responding to both indole and skatole. The human receptor OR11H4 (SEQ ID NO: 49 and SEQ ID NO: 50) was identified because of its sequence similarity to mouse Olfr746 (SEQ ID NO: 38), a receptor isolated from olfactory neurons responding to both indole and skatole. The mouse receptor Olfr665 (SEQ ID NO: 9 and SEQ ID NO: 10) was identified directly from NGS data from isolated olfactory neurons responding to both indole and skatole. The mouse receptor Olfr740 (SEQ ID NO: 1 and SEQ ID NO: 2) was identified directly from NGS data from isolated olfactory neurons responding to both indole and skatole. Co-expression of the human G alpha subunit Gα15 activates the Gq transduction pathway that leads to an internal Ca2+ increase upon binding to the appropriate ligand.

OR5AC2 = target: T2, OR5AC2 (Homo sapiens, UniProt Q9NZP5); settings: dose-response curves FIG. 6D-J
T2 construct: expressed in transfected cells
T2 sequence (Q9NZP5 1-309): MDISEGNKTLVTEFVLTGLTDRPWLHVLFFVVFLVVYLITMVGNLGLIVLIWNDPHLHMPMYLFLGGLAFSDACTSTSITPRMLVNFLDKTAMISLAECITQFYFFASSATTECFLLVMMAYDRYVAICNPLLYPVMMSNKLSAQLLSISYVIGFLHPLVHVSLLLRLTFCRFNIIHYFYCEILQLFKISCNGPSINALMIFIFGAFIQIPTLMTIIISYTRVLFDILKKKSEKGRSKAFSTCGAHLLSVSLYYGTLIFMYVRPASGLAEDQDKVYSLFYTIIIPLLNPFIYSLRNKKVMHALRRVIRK
Text: as §1

OR8S1 = target: T3, OR8S1 (Homo sapiens, UniProt Q8NH09); settings: dose-response curves FIG. 6D-J
T3 construct: expressed in transfected cells
T3 sequence (Q8NH09 1-359): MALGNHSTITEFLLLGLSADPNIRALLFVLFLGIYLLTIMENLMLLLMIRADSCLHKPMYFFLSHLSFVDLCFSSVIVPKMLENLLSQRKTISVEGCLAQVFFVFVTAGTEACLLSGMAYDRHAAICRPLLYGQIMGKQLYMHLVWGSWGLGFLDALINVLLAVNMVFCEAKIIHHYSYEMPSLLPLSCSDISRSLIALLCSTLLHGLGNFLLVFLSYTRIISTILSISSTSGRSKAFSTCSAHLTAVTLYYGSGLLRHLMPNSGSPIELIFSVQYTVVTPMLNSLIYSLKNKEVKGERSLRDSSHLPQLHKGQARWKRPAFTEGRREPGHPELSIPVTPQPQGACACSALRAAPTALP
Text: as §1

Olfr665 = system: Olfr665; design: species or system mouse; settings: dose-response curves FIG. 6D-J
Text: as §1, with “The human receptor OR11H6 (SEQ ID NO: 15 and SEQ ID NO: 16) was identified because of its sequence similarity to mouse Olfr745 (SEQ ID NO: 8), a receptor isolated from olfactory neurons responding to both indole and skatole. The human receptor OR11H4 (SEQ ID NO: 49 and SEQ ID NO: 50) was identified because of its sequence similarity to mouse Olfr746 (SEQ ID NO: 38), a receptor isolated from olfactory neurons responding to both indole and skatole. The mouse receptor Olfr665 (SEQ ID NO: 9 and SEQ ID NO: 10) was identified directly from NGS data from isolated olfactory neurons responding to both indole and skatole. The mouse receptor Olfr740 (SEQ ID NO: 1 and SEQ ID NO: 2) was identified directly from NGS data from isolated olfactory neurons responding to both indole and skatole. Co-expression of the human G alpha subunit Gα15 activates the Gq transduction pathway that leads to an internal Ca2+ increase upon binding to the appropriate ligand.” left out

Olfr740 = system: Olfr740; design: species or system mouse; settings: dose-response curves FIG. 6D-J
Text: as §1, with “The human receptor OR11H6 (SEQ ID NO: 15 and SEQ ID NO: 16) was identified because of its sequence similarity to mouse Olfr745 (SEQ ID NO: 8), a receptor isolated from olfactory neurons responding to both indole and skatole. The human receptor OR11H4 (SEQ ID NO: 49 and SEQ ID NO: 50) was identified because of its sequence similarity to mouse Olfr746 (SEQ ID NO: 38), a receptor isolated from olfactory neurons responding to both indole and skatole. The mouse receptor Olfr665 (SEQ ID NO: 9 and SEQ ID NO: 10) was identified directly from NGS data from isolated olfactory neurons responding to both indole and skatole. The mouse receptor Olfr740 (SEQ ID NO: 1 and SEQ ID NO: 2) was identified directly from NGS data from isolated olfactory neurons responding to both indole and skatole. Co-expression of the human G alpha subunit Gα15 activates the Gq transduction pathway that leads to an internal Ca2+ increase upon binding to the appropriate ligand.” left out

Row | SMILES | receptor activity (Calcium 5 dye fluorescence change) (OR52N2) | receptor response in vitro (OR5AC2) | receptor response in vitro (OR8S1) | receptor activation in vitro (Olfr665) | receptor activation in vitro (Olfr740)
1 | c1ccc2[nH]ccc2c1 [indole] | dose-dependent increase of receptor activity | responded | responded | activated | activated
2 | Cc1c[nH]c2ccccc12 [skatole, 3-methyl indole] | dose-dependent increase of receptor activity | responded | responded | activated | activated
